# Measurements as given in ChEMBL document CHEMBL5154709, “Tetrazole derivatives bearing benzodiazepine moiety-synthesis and action mode against virulence of Candida albicans” (Eur J Med Chem, 2022).
# Activity calls are given as the source filed them. The calls are words filed in the database; no cut-off is given here.
# Legend:
# Candida albicans [1] = test: Antifungal activity against Candida albicans SC5314 assessed as inhibition of fungal growth at 8 ug/ml incubated for 48 hrs by M27-A3 based microdilution method relative to control; assay type: functional
# Candida albicans [2] = test: Antifungal activity against Candida albicans assessed as inhibition of fungal growth measured after 48 hrs by M27-A3 based broth microdilution; assay type: functional
# Candida albicans [3] = test: Antifungal activity against Candida albicans SC5314 assessed as inhibition of fungal growth at 0.0625 ug/ml incubated for 48 hrs by M27-A3 based microdilution method relative to control; assay type: functional
# Candida albicans [4] = test: Fungicidal activity against Candida albicans SC5314 assessed as inhibition of fungal growth incubated for 48 hrs by M27-A3 based microdilution method; assay type: functional
# Candida albicans [5] = test: Antifungal activity against Candida albicans SC5314 assessed as inhibition of fungal growth at 4 ug/ml incubated for 48 hrs by M27-A3 based microdilution method relative to control; assay type: functional
# [6] = Toxicity in Galleria mellonella larvae assessed as melanization of larvae at 16 ug/ml measured every 24 hrs for 4 to 5 days relative to control; conditions: at 16 µg/mL, time 4-5 day
# Candida albicans [7] = test: Antifungal activity against Candida albicans SC5314 assessed as inhibition of fungal growth at 0.0625 ug/ml incubated for 18 hrs by M27-A3 based microdilution method relative to control; assay type: functional
# Candida albicans [8] = test: Induction of reactive oxygen species generation in Candida albicans SC5314 assessed as increase in ROS level at 16 ug/ml incubated for 18 hrs by DCFH-DA staining based flow cytometric analysis (reference value: 0.77+/- 0.4%); assay type: functional; conditions: dose 16 µg/ml
# Candida albicans [9] = test: Antifungal activity against Candida albicans SC5314 assessed as inhibition of fungal growth at 0.25 ug/ml incubated for 48 hrs by M27-A3 based microdilution method relative to control; assay type: functional
# Candida albicans [10] = test: Induction of reactive oxygen species generation in Candida albicans BWP17 assessed as increase in ROS level at 16 ug/ml incubated for 18 hrs by DCFH-DA staining based flow cytometric analysis (reference value: 7.2+/- 0.2%); assay type: functional; conditions: dose 16 µg/ml
# Candida albicans [11] = test: In vivo antifungal activity against Candida albicans SC5314 infected in Galleria mellonella larvae assessed as survival rate of larvae at 16 ug/ml administered 1 hr post infection measured within 5 days by Hematoxylin and eosin staining; assay type: functional; conditions: SC5314, 120 h, time 5 day
# Candida albicans [12] = test: Induction of apoptosis in Candida albicans SC5314 protoplast cells assessed as necrotic cells at 16 ug/ml incubated for 18 hrs by PI/Annexin V staining based flow cytometry assay; assay type: functional; conditions: dose 16 µg/ml
# Candida albicans [13] = test: In vivo antifungal activity against Candida albicans SC5314 infected in Galleria mellonella larvae assessed as survival rate of larvae at 16 ug/ml administered 1 hr prior to infection measured within 5 days by Hematoxylin and eosin staining; assay type: functional; conditions: SC5314, 120 h, time 5 day
# Candida albicans [14] = test: Antifungal activity against Candida albicans SC5314 assessed as inhibition of fungal growth at 0.125 ug/ml incubated for 48 hrs by M27-A3 based microdilution method relative to control; assay type: functional
# Candida albicans [15] = test: Antifungal activity against Candida albicans SC5314 assessed as inhibition of fungal growth at 1 ug/ml incubated for 18 hrs by M27-A3 based microdilution method relative to control; assay type: functional
# Candida albicans [16] = test: Antifungal against Candida albicans SC5314 biofilm assessed as amorphous layer of cell surface barrier at 16 ug/ml incubated for 18 hrs by Rho123 and Hoechst 33342 double staining based confocal laser scanning microscopic analysis; assay type: functional, organism-based; conditions: dose 16.0 µg/ml
# Candida albicans [17] = test: Antifungal activity against Candida albicans SC5314 assessed as inhibition of fungal growth at 0.5 ug/ml incubated for 18 hrs by M27-A3 based microdilution method relative to control; assay type: functional
# Candida albicans [18] = test: Antifungal activity against Candida albicans SC5314 assessed as inhibition of fungal growth at 0.125 ug/ml incubated for 18 hrs by M27-A3 based microdilution method relative to control; assay type: functional
# Candida albicans [19] = test: Induction of apoptosis in Candida albicans SC5314 non-protoplast cells assessed as necrotic cells at 16 ug/ml incubated for 18 hrs by PI/Annexin V staining based flow cytometry assay; assay type: functional; conditions: dose 16 µg/ml
# Candida albicans [20] = test: Antifungal activity against Candida albicans assessed as inhibition of fungal growth measured after 48 hrs in presence of exogenous ergosterol by M27-A3 based broth microdilution; assay type: functional
# Candida albicans [21] = test: Antifungal activity against Candida albicans SC5314 assessed as inhibition of fungal growth at 0.25 ug/ml incubated for 18 hrs by M27-A3 based microdilution method relative to control; assay type: functional
# Candida albicans [22] = test: Antifungal activity against Candida albicans SC5314 assessed as inhibition of fungal growth at 1 ug/ml incubated for 48 hrs by M27-A3 based microdilution method relative to control; assay type: functional
# Candida albicans [23] = test: Antifungal activity against Candida albicans SC5314 assessed as inhibition of fungal growth at 2 ug/ml incubated for 48 hrs by M27-A3 based microdilution method relative to control; assay type: functional
# Candida albicans [24] = test: In vivo antifungal activity against Candida albicans SC5314 infected in Galleria mellonella larvae assessed as prevention of candidiasis at 16 ug/ml administered 1 hr prior to infection measured after 5 days by Hematoxylin and eosin staining; assay type: functional, organism-based; conditions: dose 16.0 µg/ml, time 5.0 day
# [25] = Cytotoxicity against human TR146 cells at more than 64 ug/ml measured after 24 hrs by XTT assay; assay type: toxicity, cell-based; conditions: tr146, 24 h, dose 64 µg/ml
# [26] = Toxicity in Galleria mellonella larvae assessed as change in morphology at 16 ug/ml measured after 5 days by Hematoxylin and eosin staining; conditions: 120 h, dose 16 µg/ml, time 5 day
# Candida albicans [27] = test: Antifungal activity against Candida albicans SC5314 assessed as inhibition of fungal growth at 16 ug/ml incubated for 18 hrs by M27-A3 based microdilution method relative to control; assay type: functional
# Candida albicans [28] = test: Antifungal activity against Candida albicans SC5314 assessed as inhibition of fungal growth at 2 ug/ml incubated for 18 hrs by M27-A3 based microdilution method relative to control; assay type: functional
# Candida albicans [29] = test: Induction of cell cycle arrest in Candida albicans SC5314 assessed as accumulation of cells in G0/G1 phase at 16 ug/ml incubated fro 18 hrs by PI staining based flow cytometry method; assay type: functional, organism-based; conditions: dose 16.0 µg/ml
# Candida albicans [30] = test: Antifungal activity against Candida albicans SC5314 assessed as inhibition of fungal growth at 0.03125 ug/ml incubated for 18 hrs by M27-A3 based microdilution method relative to control; assay type: functional
# Vero = test: Cytotoxicity against African green monkey Vero cells at > 64 ug/ml measured after 24 hrs by XTT assay; assay type: toxicity, cell-based; conditions: chlorocebus sabaeus, dose > 64 µg/ml
# Candida albicans [31] = test: Antifungal activity against Candida albicans SC5314 assessed as inhibition of fungal growth at 8 ug/ml incubated for 18 hrs by M27-A3 based microdilution method relative to control; assay type: functional
# Candida albicans [32] = test: Antifungal activity against Candida albicans SC5314 assessed as inhibition of fungal growth at 0.5 ug/ml incubated for 48 hrs by M27-A3 based microdilution method relative to control; assay type: functional
# Candida albicans [33] = test: Antifungal activity against Candida albicans SC5314 assessed as inhibition of fungal growth at 4 ug/ml incubated for 18 hrs by M27-A3 based microdilution method relative to control; assay type: functional
# Candida albicans [34] = test: Antifungal activity against Candida albicans SC5314 assessed as inhibition of fungal growth at 0.03125 ug/ml incubated for 48 hrs by M27-A3 based microdilution method relative to control; assay type: functional
# Candida albicans [35] = test: Induction of reactive oxygen species generation in Candida albicans CNB1/cnb1delta mutant assessed as increase in ROS level at 16 ug/ml incubated for 18 hrs by DCFH-DA staining based flow cytometric analysis (reference value: 3.8+/- 4.2%); assay type: functional; conditions: dose 16 µg/ml
# Candida albicans [36] = test: Antifungal against Candida albicans SC5314 biofilm co-cultured with African green monkey Vero cells assessed as apoptotic-like chromatin aggregation of intact hyphae by measuring green fluorescence emission at 16 ug/ml incubated for 18 hrs by PI/acridine orange double staining based confocal laser scanning microscopic analysis; assay type: functional, organism-based; conditions: dose 16.0 µg/ml
# Candida albicans [37] = test: Induction of reactive oxygen species generation in Candida albicans cnb1delta/cnb1delta mutant assessed as increase in ROS level at 16 ug/ml incubated for 18 hrs by DCFH-DA staining based flow cytometric analysis (reference value: 4.7+/- 5.9%); assay type: functional; conditions: dose 16 µg/ml
smiles,measurement,setting,value
O=C1CN=C(c2ccccc2Br)c2cc(F)ccc2N1CCCn1nnc(-c2ccc(Cl)cc2)n1,inhibition at 8 µg/mL,Candida albicans [1],99%
same,MIC,Candida albicans [2],64 µg/mL
same,inhibition at 0.0625 µg/mL,Candida albicans [3],99.3%
same,inhibition (INH),Candida albicans [4],99.24%
same,inhibition at 4 µg/mL,Candida albicans [5],99.2%
same,Activity,[6],17%
same,inhibition at 0.0625 µg/mL,Candida albicans [7],99.3%
same,Activity,Candida albicans [8],19.6%
same,inhibition at 0.25 µg/mL,Candida albicans [9],100%
same,Activity,Candida albicans [10],6.8%
same,survival at 16 µg/mL,Candida albicans [11],100%
same,Activity,Candida albicans [12],81.23%
same,survival at 16 µg/mL,Candida albicans [13],95%
same,inhibition at 0.125 µg/mL,Candida albicans [14],98.9%
same,inhibition at 1 µg/mL,Candida albicans [15],99%
same,Activity,Candida albicans [16],Active
same,inhibition at 0.5 µg/mL,Candida albicans [17],99%
same,inhibition at 0.125 µg/mL,Candida albicans [18],98.9%
same,Activity,Candida albicans [19],78.23%
same,MIC,Candida albicans [20],2.56 µg/mL
same,inhibition at 0.25 µg/mL,Candida albicans [21],99.9%
same,inhibition at 1 µg/mL,Candida albicans [22],99.1%
same,inhibition at 2 µg/mL,Candida albicans [23],100%
same,Activity,Candida albicans [24],Active
same,Activity,[25],Non-Toxic
same,Activity,[26],Non-Toxic
same,inhibition at 16 µg/mL,Candida albicans [27],99.5%
same,inhibition at 2 µg/mL,Candida albicans [28],99.8%
same,Activity,Candida albicans [29],Active
same,inhibition at 0.03125 µg/mL,Candida albicans [30],100%
same,Activity,Vero,Toxic
same,inhibition at 8 µg/mL,Candida albicans [31],99%
same,inhibition at 0.5 µg/mL,Candida albicans [32],99%
same,inhibition at 4 µg/mL,Candida albicans [33],99.2%
same,inhibition at 0.03125 µg/mL,Candida albicans [34],100%
same,Activity,Candida albicans [35],4.2%
same,Activity,Candida albicans [36],Active
same,Activity,Candida albicans [37],3.35%
